Activity calls are given as the source filed them. No cut-off for these calls is given here.
Experiments:
HepG2 [1] = assay: Cytotoxicity against human HepG2 cells assessed as inhibition of cell proliferation incubated for 48 hrs by MTT assay; type: functional, cell-based; conditions: HepG2, 48 h
Huh-7 [2] = assay: Cytotoxicity against human Huh-7 cells assessed as inhibition of cell proliferation incubated for 48 hrs by MTT assay; type: functional, cell-based; conditions: Huh-7, 48 h
MHCC97H [3] = assay: Cytotoxicity against human MHCC97H cells assessed as inhibition of cell proliferation incubated for 48 hrs by MTT assay; type: functional, cell-based
HCCLM3 [4] = assay: Cytotoxicity against human HCCLM3 cells assessed as inhibition of cell proliferation incubated for 48 hrs by MTT assay; type: functional, cell-based; conditions: HCCLM3, 48 h
MHCC97H [5] = assay: Cytotoxicity against human MHCC97H cells assessed as cell viability incubated at 12 to 48 hrs hrs by MTT assay; type: functional, cell-based; conditions: dose <= 40.0 µM, time 12-48 hrs
MHCC97H [6] = assay: Cytotoxicity against human MHCC97H cells assessed as cell viability up to 40 uM by MTT assay; type: functional, cell-based; conditions: time 12-48 hrs
HCCLM3 [7] = assay: Cytotoxicity against human HCCLM3 cells assessed as cell viability incubated at 12 to 48 hrs hrs by MTT assay; type: functional, cell-based; conditions: dose <= 40.0 µM, time 12-48 hrs
HCCLM3 [8] = assay: Cytotoxicity against human HCCLM3 cells assessed as cell viability up to 40 uM by MTT assay; type: functional, cell-based; conditions: time 12-48 hrs
HCCLM3 [9] = assay: Cytotoxicity against human HCCLM3 cells assessed as cell viability up to 40 uM measured at 12 hrs by MTT assay; type: functional, cell-based
MHCC97H [10] = assay: Cytotoxicity against human MHCC97H cells assessed as cell viability up to 40 uM measured at 12 hrs by MTT assay; type: functional, cell-based
HCCLM3 [11] = assay: Cytotoxicity against human HCCLM3 cells assessed as cell viability up to 40 uM measured at 24 to 48 hrs by MTT assay; type: functional, cell-based; conditions: time 24-48 hrs
MHCC97H [12] = assay: Cytotoxicity against human MHCC97H cells assessed as cell viability up to 40 uM measured at 24 to 48 hrs by MTT assay; type: functional, cell-based; conditions: time 24-48 hrs
HCCLM3 [13] = assay: Cytotoxicity against human HCCLM3 cells assessed as reduction in cell viability up to 40 uM measured at 48 hrs by MTT assay; type: functional, cell-based
MHCC97H [14] = assay: Cytotoxicity against human MHCC97H cells assessed as reduction in cell viability up to 40 uM measured at 48 hrs by MTT assay; type: functional, cell-based
HCCLM3 [15] = assay: Cytotoxicity against human HCCLM3 cells assessed as reduction in cell viability at 40 uM measured at 48 hrs by MTT assay; type: functional, cell-based
MHCC97H [16] = assay: Cytotoxicity against human MHCC97H cells assessed as reduction in cell viability at 40 uM measured at 48 hrs by MTT assay; type: functional, cell-based
HCCLM3 [17] = assay: Cytotoxicity against human HCCLM3 cells assessed as reduction in cell viability at 40 uM measured after 48 hrs by MTT assay; type: functional, cell-based
MHCC97H [18] = assay: Cytotoxicity against human MHCC97H cells assessed as reduction in cell viability at 40 uM measured after 48 hrs by MTT assay; type: functional, cell-based
HepG2 [19] = assay: Antiproliferative activity against human HepG2 cells assessed as reduction in intracellular ATP level at 10 uM incubated for 48 hrs by luminometer analysis relative to control; type: functional; parameters: scale not given: the % may be the effect or the level left
Huh-7 [20] = assay: Antiproliferative activity against human Huh-7 cells assessed as reduction in intracellular ATP level at 10 uM incubated for 48 hrs by luminometer analysis relative to control; type: functional; parameters: scale not given: the % may be the effect or the level left
MHCC97H [21] = assay: Antiproliferative activity against human MHCC97H cells assessed as reduction in intracellular ATP level at 10 uM incubated for 48 hrs by luminometer analysis relative to control; type: functional; parameters: scale not given: the % may be the effect or the level left
HCCLM3 [22] = assay: Antiproliferative activity against human HCCLM3 cells assessed as reduction in intracellular ATP level at 10 uM incubated for 48 hrs by luminometer analysis relative to control; type: functional; parameters: scale not given: the % may be the effect or the level left
MHCC97H [23] = assay: Antitumor activity against human MHCC97H cells xenografted in nude mouse assessed as tumor weight at 10 mg/kg, po administered daily for 3 weeks (reference value: 1.667g); type: functional
MHCC97H [24] = assay: Antitumor activity against human MHCC97H cells xenografted in nude mouse assessed as tumor weight at 5 mg/kg, po administered daily for 3 weeks (reference value: 1.667g); type: functional
MHCC97H [25] = assay: Antitumor activity against human MHCC97H cells xenografted in nude mouse assessed as tumor growth inhibition at 10 mg/kg, po administered daily for 3 weeks relative to control; type: functional; conditions: 504 h, read-out: TGI
MHCC97H [26] = assay: Antitumor activity against human MHCC97H cells xenografted in nude mouse assessed as tumor growth inhibition at 5 mg/kg, po administered daily for 3 weeks relative to control; type: functional; conditions: 504 h, read-out: TGI

| Compound | IC50 (HepG2 [1]) [µM] | IC50 (Huh-7 [2]) [µM] | IC50 (MHCC97H [3]) [µM] | IC50 (HCCLM3 [4]) [µM] | also measured |
| --- | --- | --- | --- | --- | --- |
| CC[C@@H](C)[C@H]1NC(=O)[C@@H]2CCCN2C(=O)[C@@H](CC(C)C)NC(=O)[C@@H](Cc2ccc(OC(C)(C)C)cc2)NC(=O)[C@H](CC(C)C)NC(=O)[C@H](C(C)C)NC(=O)[C@H](CC(C)C)NC(=O)[C@H](CC(C)C)NC(=O)[C@H](CC(C)C)NC1=O | > 100 | > 100 | > 100 | > 100 |  |
| CC(C)C[C@@H]1NC(=O)[C@H](CC(C)C)NC(=O)[C@@H](CCCCNC(=O)OC(C)(C)C)NC(=O)[C@@H]2CCCN2C(=O)[C@@H](CC(C)C)NC(=O)[C@H](Cc2ccccc2)NC(=O)[C@H](CC(C)C)NC(=O)[C@H](C(C)C)NC(=O)[C@H](CC(C)C)NC1=O | > 100 | > 100 | 3.64 | 5.23 |  |
| CC[C@@H](C)[C@H]1NC(=O)[C@@H]2CCCN2C(=O)[C@@H](CC(C)C)NC(=O)[C@H](COC(C)(C)C)NC(=O)[C@@H](CCCCNC(=O)OC(C)(C)C)NC(=O)[C@H](C(C)C)NC(=O)[C@H](CC(C)C)NC(=O)[C@H](CC(C)C)NC(=O)[C@H](CC(C)C)NC1=O | > 100 | > 100 | 3.04 | 2.99 |  |
| CC[C@@H](C)[C@H]1NC(=O)[C@@H]2CCCN2C(=O)[C@@H](CC(C)C)NC(=O)[C@H](Cc2ccc(OC(C)(C)C)cc2)NC(=O)[C@@H](CC(C)C)NC(=O)[C@H](C(C)C)NC(=O)[C@H](CC(C)C)NC(=O)[C@H](CC(C)C)NC(=O)[C@H](CC(C)C)NC1=O | 2.08 | 2.08 | 4.86 | 2.86 |  |
| CC(C)C[C@@H]1NC(=O)[C@H](CC(C)C)NC(=O)[C@@H](CCCCNC(=O)OC(C)(C)C)NC(=O)[C@@H]2CCCN2C(=O)[C@@H](CC(C)C)NC(=O)[C@H](Cc2ccc(OC(C)(C)C)cc2)NC(=O)[C@H](CC(C)C)NC(=O)[C@H](C(C)C)NC(=O)[C@H](CC(C)C)NC1=O | > 100 | > 100 | 3.51 | 3.26 | Activity (MHCC97H [5]): Dose-dependent-effect; Activity (MHCC97H [6]): Time-dependent-effect; Activity (HCCLM3 [7]): Dose-dependent-effect; Activity (HCCLM3 [8]): Time-dependent-effect; Activity (HCCLM3 [9]): Active; Activity (MHCC97H [10]): Active; Activity (HCCLM3 [11]): Active; Activity (MHCC97H [12]): Active; Activity (HCCLM3 [13]): Active; Activity (MHCC97H [14]): Active; Activity (HCCLM3 [15]): Active; Activity (MHCC97H [16]): Active; Activity (HCCLM3 [17]): Active; Activity (MHCC97H [18]): Active |
| CC[C@H](C)[C@@H]1NC(=O)[C@@H]2CCCN2C(=O)[C@H](CC(C)C)NC(=O)[C@H](COC(C)(C)C)NC(=O)[C@H](CC(C)C)NC(=O)[C@H](C(C)C)NC(=O)[C@H](CC(C)C)NC(=O)[C@H](CC(C)C)NC(=O)[C@H](CC(C)C)NC1=O |  |  |  |  | Activity (HepG2 [19]): 41.1%; Activity (Huh-7 [20]): 81.8%; Activity (MHCC97H [21]): 87.8%; Activity (HCCLM3 [22]): 99.9%; Activity (MHCC97H [23]): 0.262 g; Activity (MHCC97H [24]): 0.052 g; inhibition in vivo at 10 mg/kg (MHCC97H [25]): 84.3%; inhibition in vivo at 5 mg/kg (MHCC97H [26]): 68.9% |
| CC[C@@H](C)[C@H]1NC(=O)[C@@H]2CCCN2C(=O)[C@@H](CC(C)C)NC(=O)[C@@H]([C@@H](C)OC(C)(C)C)NC(=O)[C@H](CC(C)C)NC(=O)[C@H](C(C)C)NC(=O)[C@H](CC(C)C)NC(=O)[C@H](CC(C)C)NC(=O)[C@H](CC(C)C)NC1=O | > 100 | > 100 | > 100 | > 100 |  |
| CC[C@@H](C)[C@H]1NC(=O)[C@@H]2CCCN2C(=O)[C@@H](CC(C)C)NC(=O)[C@H](CCCCNC(=O)OC(C)(C)C)NC(=O)[C@@H](CC(C)C)NC(=O)[C@H](C(C)C)NC(=O)[C@H](CC(C)C)NC(=O)[C@H](CC(C)C)NC(=O)[C@H](CC(C)C)NC1=O | > 100 | > 100 | > 100 | > 100 |  |
| CC[C@@H](C)[C@H]1NC(=O)[C@@H]2CCCN2C(=O)[C@@H](CC(C)C)NC(=O)CNC(=O)[C@H](CC(C)C)NC(=O)[C@H](C(C)C)NC(=O)[C@H](CC(C)C)NC(=O)[C@H](CC(C)C)NC(=O)[C@H](CC(C)C)NC1=O | > 100 | > 100 | > 100 | > 100 |  |
| CC[C@@H](C)[C@H]1NC(=O)[C@@H]2CCCN2C(=O)[C@@H](CC(C)C)NC(=O)[C@@H](COC(C)(C)C)NC(=O)[C@H](CC(C)C)NC(=O)[C@H](C(C)C)NC(=O)[C@H](CC(C)C)NC(=O)[C@H](CC(C)C)NC(=O)[C@H](CC(C)C)NC1=O | > 100 | > 100 | > 100 | > 100 |  |
| CC[C@@H](C)[C@H]1NC(=O)[C@@H]2CCCN2C(=O)[C@@H](CC(C)C)NC(=O)[C@H]([C@H](C)OC(C)(C)C)NC(=O)[C@@H](CC(C)C)NC(=O)[C@H](C(C)C)NC(=O)[C@H](CC(C)C)NC(=O)[C@H](CC(C)C)NC(=O)[C@H](CC(C)C)NC1=O | 3.41 | 3.41 | 6.05 | 4.19 |  |
| CC[C@@H](C)[C@H]1NC(=O)[C@@H]2CCCN2C(=O)[C@@H](CC(C)C)NC(=O)[C@H](C(C)C)NC(=O)[C@@H](CC(C)C)NC(=O)[C@H](C(C)C)NC(=O)[C@H](CC(C)C)NC(=O)[C@H](CC(C)C)NC(=O)[C@H](CC(C)C)NC1=O | 12.2 | 12.2 | 8.18 | 9.94 |  |
| CC[C@@H](C)[C@H]1NC(=O)[C@@H]2CCCN2C(=O)[C@@H](CC(C)C)NC(=O)[C@@H]([C@@H](C)OC(C)(C)C)NC(=O)[C@@H](CCCCNC(=O)OC(C)(C)C)NC(=O)[C@H](C(C)C)NC(=O)[C@H](CC(C)C)NC(=O)[C@H](CC(C)C)NC(=O)[C@H](CC(C)C)NC1=O | > 100 | > 100 | 9.19 | 6.57 | Activity (MHCC97H [5]): Dose-dependent-effect; Activity (MHCC97H [6]): Time-dependent-effect; Activity (HCCLM3 [7]): Dose-dependent-effect; Activity (HCCLM3 [8]): Time-dependent-effect; Activity (HCCLM3 [9]): Active; Activity (MHCC97H [10]): Active; Activity (HCCLM3 [11]): Active; Activity (MHCC97H [12]): Active; Activity (HCCLM3 [13]): Active; Activity (MHCC97H [14]): Active; Activity (HCCLM3 [15]): Active; Activity (MHCC97H [16]): Active; Activity (HCCLM3 [17]): Active; Activity (MHCC97H [18]): Active |
| CC(C)C[C@@H]1NC(=O)[C@H](CC(C)C)NC(=O)[C@@H](CCCCNC(=O)OC(C)(C)C)NC(=O)[C@@H]2CCCN2C(=O)[C@@H](CC(C)C)NC(=O)[C@H](COC(C)(C)C)NC(=O)[C@H](CC(C)C)NC(=O)[C@H](C(C)C)NC(=O)[C@H](CC(C)C)NC1=O | > 100 | > 100 | 10.2 | 10.2 |  |
| CC(C)C[C@@H]1NC(=O)[C@H](CC(C)C)NC(=O)[C@@H](CCCCNC(=O)OC(C)(C)C)NC(=O)[C@@H]2CCCN2C(=O)[C@@H](CC(C)C)NC(=O)[C@H](C(C)C)NC(=O)[C@H](CC(C)C)NC(=O)[C@H](C(C)C)NC(=O)[C@H](CC(C)C)NC1=O | > 100 | > 100 | 2.7 | 2.17 |  |
| CC[C@@H](C)[C@H]1NC(=O)[C@@H]2CCCN2C(=O)[C@@H](CC(C)C)NC(=O)[C@@H](Cc2ccccc2)NC(=O)[C@H](CC(C)C)NC(=O)[C@H](C(C)C)NC(=O)[C@H](CC(C)C)NC(=O)[C@H](CC(C)C)NC(=O)[C@H](CC(C)C)NC1=O | > 100 | > 100 | > 100 | > 100 |  |

From ChEMBL document CHEMBL6109101, “Synthesis and bioactivity of cyclic peptide GG-8-6 analogues as anti-hepatocellular carcinoma agents” (Eur J Med Chem, 2025)
